Data from patent US12479843B2, “Spiro ring-containing quinazoline compounds” (WIGEN BIOMEDICINE TECHNOLOGY (SHANGHAI) CO., LTD., priority 2019, dated 2025).

Key:
pERK level in H358 cells = assay: pERK and ERK protein content assay in H358 cells (ELISA); format: cell-based; settings: Homo sapiens, NCI-H358, compound 1 μM, 24 h, pERK/ERK ratio compared with DMSO group, read-out: Inhibition rate (%) of pERK level
Description: H358 cells were seeded in a 24-well plate. After one day of growth, a test compound (at a concentration of 1 μM) was added. After 24 h of action of the compound, the cells were lysed, and the cell lysate was transferred to a 96-well ELISA plate. The levels of pERK and ERK in the lysate were measured using an ELISA kit (abcam 176660). The ratio of pERK to ERK was calculated and compared with that of the DMSO group, and the percentage of inhibition of pERK activity by the compound was calculated.

H358 cells = assay: Antiproliferative activity against H358 cells (Cell Titer Glow, ultra-low attachment plate); format: cell-based; settings: Homo sapiens, NCI-H358, 72 h, 96-well ultra-low attachment plate, three days after addition of compound, Cell Titer Glow
Description: 2500 H358 cells were seeded in a 96-well ultra-low attachment plate (corning, 7007). After one day of growth, a serially diluted compound (a maximum concentration of 5 μM, 5-fold dilution, a total of five doses) was added. Three days after the addition of the compound, Cell Titer Glow (Promega, G9681) was added to evaluate pellet growth, and the IC50 value was calculated.

| SMILES | inhibition at 1 µM (pERK level in H358 cells) | IC50 (H358 cells) |
| --- | --- | --- |
| C=CC(=O)N1CC2(CCN(c3nc(N4CC[C@@H](N5CCC(OC)CC5)C4)nc4c(OCC(F)(F)F)c(-c5c(C)ccc6[nH]ncc56)c(C5CC5)cc34)CC2)C1 [Compound 214] | 50 to 90% | 300 to 1000 nM |
| C=CC(=O)N1CC2(CCN(c3nc(N4CC(N5C6CCC5CC6)C4)nc4c(OCC(F)(F)F)c(-c5c(C)c(F)cc6[nH]ncc56)c(C5CC5)cc34)CC2)C1 [Compound 329] | > 90% | < 300 nM |
| C=CC(=O)N1CC2(CCN(c3nc(N4CC(N5CC[C@@H](C)C5)C4)nc4c(OCC(F)F)c(-c5c(C)ccc6[nH]ncc56)c(C5CC5)cc34)CC2)C1 [Compound 334] | > 90% | < 300 nM |
| C=CC(=O)N1CC2(CCN(c3nc(N4CC(N5CC[C@H](C(C)(C)O)C5)C4)nc4c(OCC(F)(F)F)c(-c5c(C)ccc6[nH]ncc56)c(C5CC5)cc34)CC2)C1 [Compound 253] | > 90% | 300 to 1000 nM |
| C=C(F)C(=O)N1CC2(CCN(c3nc(N4CCC(N5CCOCC5)CC4)nc4c(OCC(F)(F)F)c(-c5c(C)ccc6[nH]ncc56)c(C5CC5)cc34)CC2)C1 [Compound 149] | 50 to 90% | 300 to 1000 nM |
| C=CC(=O)N1CC2(CCN(c3nc(N(C)CCN4CC(O)C4)nc4c(OCC(F)(F)F)c(-c5c(C)ccc6[nH]ncc56)c(C5CC5)cc34)CC2)C1 [Compound 229] | > 90% | < 300 nM |
| C=CC(=O)N1CC2(CCN(c3nc(N4CC[C@@H](N5CCC(F)CC5)C4)nc4c(OCC(F)(F)F)c(-c5c(C)ccc6[nH]ncc56)c(C5CC5)cc34)CC2)C1 [Compound 212] | > 90% | < 300 nM |
| C=CC(=O)N1CC2(CCN(c3nc(N4CC[C@@H](N5CC[C@H](F)C5)C4)nc4c(OCC(F)(F)F)c(-c5c(C)ccc6[nH]ncc56)c(C5CC5)cc34)CC2)C1 [Compound 192] | > 90% | < 300 nM |
| C=C(F)C(=O)N1CC2(CCN(c3nc(N4CC5(COC5)C4)nc4c(OCC(F)(F)F)c(-c5c(C)ccc6[nH]ncc56)c(C5CC5)cc34)CC2)C1 [Compound 68] | 50 to 90% | 300 to 1000 nM |
| C=CC(=O)N1CC2(CCN(c3nc(OC4CCN(CCOC)CC4)nc4c(OCC(F)(F)F)c(-c5c(C)ccc6[nH]ncc56)c(F)cc34)CC2)C1 [Compound 11] | > 90% | < 300 nM |
| C=CC(=O)N1CC2(CCN(c3nc(N4CC(N5CCCC5)C4)nc4c(OCC(F)(F)F)c(-c5c(C)ccc6[nH]ncc56)c(C5(C)CC5)cc34)CC2)C1 [Compound 323] | > 90% | < 300 nM |
| C=CC(=O)N1CC2(CCN(c3nc(O[C@H]4C[C@@H]5C[C@H]4CS5(=O)=O)nc4c(OCC(F)(F)F)c(-c5c(C)ccc6[nH]ncc56)c(C5CC5)cc34)CC2)C1 [Compound 314] | > 90% | < 300 nM |
| C=C(F)C(=O)N1CC2(CCN(c3nc(N4CCC5(CC4)CN(CCOC)C5)nc4c(OCC(F)(F)F)c(-c5c(C)ccc6[nH]ncc56)c(C5CC5)cc34)CC2)C1 [Compound 104] | 50 to 90% | 300 to 1000 nM |
| C=CC(=O)N1CC2(CCN(c3nc(N4CC(N5CC[C@@H](OC)C5)C4)nc4c(OCC(F)(F)F)c(-c5c(C)ccc6[nH]ncc56)c(C5CC5)cc34)CC2)C1 [Compound 175] | > 90% | < 300 nM |
| C=C(C(=O)N1CC2(CCN(c3nc(OC4CCN(CCOC)CC4)nc4c(OCC(F)(F)F)c(-c5c(C)ccc6[nH]ncc56)c(C5CC5)cc34)CC2)C1)c1cnccn1 [Compound 20] | > 90% | < 300 nM |
| C=CC(=O)N1CC2(CCN(c3nc(N4CC5(C4)[C@H](O)CCN5C)nc4c(OCC(F)(F)F)c(-c5c(C)ccc6[nH]ncc56)c(C5CC5)cc34)CC2)C1 [Compound 272] | > 90% | < 300 nM |
| C=CC(=O)N1CC2(CCN(c3nc(N4CC(N5CCC[C@@H]5C)C4)nc4c(OCC(F)(F)F)c(-c5c(C)ccc6[nH]ncc56)c(C5CC5)cc34)CC2)C1 [Compound 246] | > 90% | < 300 nM |
